From the supplement of paper PMC10307832

Assays:
Test in all cases: relative viability (nuclei count vs DMSO), 5 days (fraction); higher = more cells survive
[1] = compound: C1=CC2=C(C=CC(=C2)C=C3C(=O)NC(=NCC4=CC=CS4)S3)N=C1 [RO-3306] + CC1(C)CCC(c2ccc(Cl)cc2)=C(CN2CCN(c3ccc(C(=O)NS(=O)(=O)c4ccc(N[C@H](CCN5CCOCC5)CSc5ccccc5)c(S(=O)(=O)C(F)(F)F)c4)cc3)CC2)C1 [Navitoclax] (partner 0.5 µM)
Summary of the method: (§1)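 Each reported value is a median over duplicate plates. It expresses relative viability: treated-well nuclei count divided by vehicle-well nuclei count. Lung cancer cell lines in 1536-well plates were dosed by pin tool a day after seeding, alone with one drug or with a fixed anchor-drug dose plus five library-drug doses (not always all listed) in √10 steps, and nuclei were counted after 5 days.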

[2] = compound: C1=CC2=C(C=CC(=C2)C=C3C(=O)NC(=NCC4=CC=CS4)S3)N=C1 [RO-3306] + Nc1nc2[nH]cc(CCc3ccc(C(=O)N[C@@H](CCC(=O)O)C(=O)O)cc3)c2c(=O)[nH]1 [Pemetrexed] (partner 0.2 µM)
Summary of the method: as §1

[3] = compound: C1=CC2=C(C=CC(=C2)C=C3C(=O)NC(=NCC4=CC=CS4)S3)N=C1 [RO-3306] + O=C(CCCCCCC(=O)Nc1ccccc1)NO [Vorinostat] (partner 1 µM)
Summary of the method: as §1

[4] = compound: O=S(=O)(c1ccccc1)N(CC(F)(F)F)c1ccc(C(O)(C(F)(F)F)C(F)(F)F)cc1 + Cc1nc(Nc2ncc(C(=O)Nc3c(C)cccc3Cl)s2)cc(N2CCN(CCO)CC2)n1 [Dasatinib] (partner 0.075 µM)
Summary of the method: as §1

| Cell Line | relative viability ([1]; first compound 0.01 µM) | relative viability ([1]; first compound 0.03162 µM) | relative viability ([1]; first compound 0.1 µM) | relative viability ([1]; first compound 0.3162 µM) | relative viability ([1]; first compound 1 µM) | relative viability ([2]; first compound 0.01 µM) | relative viability ([2]; first compound 0.03162 µM) | relative viability ([2]; first compound 0.1 µM) | relative viability ([2]; first compound 0.3162 µM) | relative viability ([2]; first compound 1 µM) | relative viability ([3]; first compound 0.01 µM) | relative viability ([3]; first compound 0.03162 µM) | relative viability ([3]; first compound 0.1 µM) | relative viability ([3]; first compound 0.3162 µM) | relative viability ([3]; first compound 1 µM) | relative viability ([4]; first compound 0.8 µM) | relative viability ([4]; first compound 2.53 µM) | relative viability ([4]; first compound 8 µM) |
| --- | --- | --- | --- | --- | --- | --- | --- | --- | --- | --- | --- | --- | --- | --- | --- | --- | --- | --- |
| NCI-H441 | 0.593 | 0.71 | 0.382 | 0.57 | 0.364 | 0.266 | 0.276 | 0.228 | 0.235 | 0.23 | 0.888 | 0.495 | 0.837 | 1.23 | 0.638 | 0.868 | 0.501 | 0.577 |
| HCC-366 | 1.22 | 0.943 | 0.991 | 1.14 | 1.15 | 0.215 | 0.194 | 0.198 | 0.137 | 0.213 | 0.454 | 0.279 | 0.25 | 0.378 | 0.308 | 0.856 | 0.674 | 0.606 |
| NCI-H2085 | 1.12 | 1.08 | 1.09 | 1.17 | 1.07 | 0.958 | 0.859 | 0.803 | 0.907 | 0.962 | 0.83 | 0.733 | 0.775 | 0.781 | 0.8 | 0.226 | 0.238 | 0.204 |
| SW 1573 | 0.838 | – | 0.892 | 0.886 | 0.966 | 0.893 | 0.744 | 0.697 | 0.9 | 0.67 | 0.67 | 0.598 | 0.738 | 0.715 | 0.763 | 0.576 | 0.46 | 0.451 |
| NCI-H1299 | 1.08 | 1.11 | 1.04 | 1 | 1.03 | – | – | – | – | – | – | – | – | – | – | – | – | – |
| H3255 | 0.458 | 0.484 | 0.558 | 0.47 | 0.428 | 0.506 | 0.501 | 0.547 | 0.57 | 0.57 | 0.788 | 0.743 | 0.802 | 0.826 | 0.819 | 0.292 | 0.309 | 0.362 |
| ABC-1 | – | – | – | – | – | – | – | – | – | – | 1.21 | 1 | 1.03 | 1.13 | 0.781 | 0.649 | 0.531 | 0.654 |
| NCI-H522 | – | – | – | – | – | 1.16 | 0.947 | 0.868 | 1.16 | 1.03 | 0.93 | 0.792 | 0.98 | 0.959 | 0.801 | 0.821 | 0.904 | 1.07 |
| IA-LM | 0.838 | 0.591 | 0.717 | 0.903 | 1.04 | – | – | – | – | – | 1.09 | 0.519 | 0.973 | 0.947 | 0.749 | – | – | – |
| EBC-1 | 0.412 | 0.357 | 0.315 | 0.474 | 0.29 | – | – | – | – | – | – | – | – | – | – | – | – | – |
| NCI-H1623 | – | – | – | – | – | – | – | – | – | – | – | – | – | – | – | 0.528 | 0.51 | 0.493 |
| SW 900 | – | – | – | – | – | 0.487 | 0.383 | 0.464 | 0.488 | 0.411 | 0.574 | 0.272 | 0.462 | 0.535 | 0.34 | 0.625 | 0.563 | 0.478 |
| NCI-H1792 | 0.74 | – | 0.614 | 0.599 | 0.311 | 1.11 | – | 0.649 | 0.757 | 0.749 | – | – | – | – | – | 0.712 | 0.587 | 0.506 |
| Calu-6 | 1.06 | 0.776 | 0.934 | 0.908 | 0.826 | – | – | – | – | – | – | – | – | – | – | – | – | – |
| NCI-H727 | 0.45 | 0.395 | 0.433 | 0.471 | 0.455 | – | – | – | – | – | 1.08 | 1.25 | 1.02 | 1.3 | 1.06 | 0.408 | 0.302 | 0.325 |
| A549 | 1.36 | – | 1.2 | 1.18 | 1.21 | – | – | – | – | – | – | – | – | – | – | – | – | – |
| NCI-H1563 | – | – | – | – | – | 0.847 | 0.788 | 0.818 | 0.852 | 0.692 | – | – | – | – | – | 0.402 | 0.427 | 0.435 |
| LCLC-103H | – | – | – | – | – | 0.474 | 0.461 | 0.448 | 0.457 | 0.464 | 0.903 | 0.663 | 0.796 | 0.812 | 0.766 | 0.553 | 0.484 | 0.51 |
| NCI-H1703 | 1.23 | 0.913 | 1.08 | 0.887 | 1.13 | – | – | – | – | – | – | – | – | – | – | – | – | – |
| NCI-H650 | – | – | – | – | – | 0.958 | 0.883 | 0.868 | 0.986 | 0.983 | 0.406 | 0.376 | 0.41 | 0.428 | 0.415 | 0.368 | 0.425 | 0.479 |
| NCI-H661 | – | – | – | – | – | 0.966 | 0.954 | 0.929 | 0.926 | 0.963 | 0.875 | 0.727 | 0.801 | 0.773 | 0.807 | 1.03 | 0.886 | 0.832 |
| NCI-H2342 | – | – | – | – | – | 0.71 | 0.778 | 0.816 | 0.817 | 0.759 | 0.691 | 0.687 | 0.735 | 0.751 | 0.76 | 0.286 | 0.31 | 0.326 |
| HCC-44 | 1.09 | 1.01 | 0.932 | 1.08 | 1.03 | 0.712 | 0.643 | 0.651 | 0.622 | 0.744 | 1.1 | 1.15 | 1.08 | 1.13 | 1.17 | – | – | – |
| NCI-H358 | – | – | – | – | – | 0.192 | 0.154 | 0.177 | 0.189 | 0.174 | 0.821 | 0.603 | 0.596 | 0.638 | 0.524 | 0.124 | 0.144 | 0.148 |
| NCI-H1648 | – | – | – | – | – | 0.887 | – | 0.602 | 0.697 | 0.873 | 0.348 | – | 0.291 | 0.408 | 0.351 | – | – | – |
